Data reported in paper PMC7725003, “Systematically Studying the Optimal Amino Acid Distribution Patterns of the Amphiphilic Structure by Using the Ultrashort Amphiphiles” (Frontiers in Microbiology, 2020).
Where no end group is shown, it is not given here.

Experiments:
MRSA 43300 = format: cell-based, methicillin-resistant S. aureus; conditions: 43300, 24 h
Protocol: (§1) The antimicrobial activities of the peptides were measured using a method adapted from the National Committee for Clinical Laboratory Standards (NCCLS) with some modifications ([Chou et al., 2016]). The specific procedure for these assays has been previously described. In brief, the bacterial cells were grown to a mid-logarithmic phase and diluted in MHB to an ultimate concentration of 0.5–1 × 10^6 CFU mL^–1. Subsequently, the peptides were consecutively diluted in a 0.2% BSA solution and then added to a bacterial solution in a 96-well plate at identical volumes. After incubation for 24 h at 37°C, the MICs were determined to be the lowest peptide concentration that inhibited 95% of the bacterial growth by monitoring the absorbance at 492 nm using a microplate reader. Subsequently, 50 μL of each incubation mixture was further transferred to agar plates and incubated overnight. The minimum bactericidal concentrations (MBCs) were determined as the lowest peptide concentration that killed greater than 99.9% of the bacterial cells. Every assay was reproduced more than 3 times.

S. aureus 29213 [1] = experiment: Salt sensitivity assay (MIC); format: cell-based, Staphylococcus aureus; conditions: for MIC, FeCl3: 4 μM FeCl3; for MIC, NH4Cl: 6 μM NH4Cl; for MIC, ZnCl2: 8 μM ZnCl2; for MIC, MgCl2: 1 mM MgCl2; for MIC, CaCl2: 2 mM CaCl2; for MIC, KCl: 4.5 mM KCl; for MIC, NaCl: 150 mM NaCl; for MIC, Control: no added salt, three independent assays
Protocol: as §1
(§2) The salt sensitivities of the peptides were determined. E. coli ATCC 25922 and S. aureus ATCC 29213 were incubated in the presence of various ultimate concentrations of physiological salts (150 mM NaCl, 4.5 mM KCl, 6 μM NH4Cl, 8 μM ZnCl2, 1 mM MgCl2, 2mM CaCl2, and 4 μM FeCl3) according to our previous protocol ([Yang et al., 2019]). These tests were performed under the MICs, and three independent assays were performed.

S. epidermidis 12228 = format: cell-based, Staphylococcus epidermidis; conditions: 12228, 24 h
Protocol: as §1

E. coli ATCC 25922 = experiment: Salt sensitivity assay (MIC); format: cell-based, Escherichia coli; conditions: for MIC, FeCl3: 4 μM FeCl3; for MIC, NH4Cl: 6 μM NH4Cl; for MIC, ZnCl2: 8 μM ZnCl2; for MIC, MgCl2: 1 mM MgCl2; for MIC, CaCl2: 2 mM CaCl2; for MIC, KCl: 4.5 mM KCl; for MIC, NaCl: 150 mM NaCl; for MIC, Control: no added salt, three independent assays
Protocol: as §1, §2

S. typhimurium 7731 = format: cell-based, Salmonella typhimurium; conditions: 7731, 24 h
Protocol: as §1

S. typhimurium 14028 = format: cell-based, Salmonella typhimurium; conditions: 14028, 24 h
Protocol: as §1

[2] = system: Listeria monocytogenes CGMCC 1.1075; format: cell-based; conditions: CGMCC 1.1075, 24 h
Protocol: as §1

P. aeruginosa 27853 = format: cell-based, Pseudomonas aeruginosa; conditions: 27853, 24 h
Protocol: as §1

E. coli 25922 = format: cell-based, Escherichia coli; conditions: 25922, 24 h
Protocol: as §1

E. coli UB1005 = format: cell-based, Escherichia coli; conditions: UB1005, 24 h
Protocol: as §1

E. coli O78 = format: cell-based, Escherichia coli; conditions: O78, 24 h
Protocol: as §1

B. subtilis 63501 = format: cell-based, Bacillus subtilis; conditions: 63501, 24 h
Protocol: as §1

[3] = system: all of the tested bacterial strains; experiment: Geometric mean of MICs, all tested bacterial strains; format: cell-based; conditions: for GM, All: geometric mean of MICs across all tested strains; for TI, All: therapeutic index TI = MHC/GM MIC
From the text: The antimicrobial activity of AMPs is the most decisive index for evaluating the clinical application of antimicrobial drugs. Many antimicrobial agents inhibit bacterial growth rather than kill the bacteria quickly, and long-term infections are pathogens that are not completely killed, which results in bacterial severe drug resistance. […] The geometric mean (GM) values of the MICs/MBCs of the two series across all of the tested bacterial strains are represented in Table 3, which depicts the average bacteriostatic/bactericidal level of a peptide.
as §1

E. faecalis 29212 = format: cell-based, Enterococcus faecalis; conditions: 29212, 24 h
Protocol: as §1

Gram-positive bacteria = conditions: for GM, Gram-positive bacteria: geometric mean of MICs (Table 3); for TI, Gram-positive bacteria: therapeutic index TI = MHC/GM MIC
Protocol: (§3) The antimicrobial activity of AMPs is the most decisive index for evaluating the clinical application of antimicrobial drugs.
as §1, with “The minimum bactericidal concentrations (MBCs) were determined as the lowest peptide concentration that killed greater than 99.9% of the bacterial cells.” left out

Gram-negative bacteria = conditions: for GM, Gram-negative bacteria: geometric mean of MICs (Table 3); for TI, Gram-negative bacteria: therapeutic index TI = MHC/GM MIC
Protocol: as §3
as §1, with “The minimum bactericidal concentrations (MBCs) were determined as the lowest peptide concentration that killed greater than 99.9% of the bacterial cells.” left out

S. aureus 29213 [4] = format: cell-based, Staphylococcus aureus; conditions: 29213, 24 h
Protocol: as §1

S. aureus 25923 = format: cell-based, Staphylococcus aureus; conditions: 25923, 24 h
Protocol: as §1

S. pullorum 7913 = format: cell-based, Salmonella pullorum; conditions: 7913, 24 h
Protocol: as §1

WRRWRWRWW-NH2 [W3]
MBC (MRSA 43300): 4 µM | MIC (MRSA 43300): 2 µM | MIC, FeCl3 (S. aureus 29213 [1]): 8 µM | MIC, NH4Cl (S. aureus 29213 [1]): 8 µM | MIC, ZnCl2 (S. aureus 29213 [1]): 4 µM | MIC, MgCl2 (S. aureus 29213 [1]): 4 µM | MIC, CaCl2 (S. aureus 29213 [1]): 4 µM | MIC, KCl (S. aureus 29213 [1]): 2 µM | MIC, NaCl (S. aureus 29213 [1]): 8 µM | MIC, Control (S. aureus 29213 [1]): 4 µM | MBC (S. epidermidis 12228): 4 µM | MIC (S. epidermidis 12228): 2 µM | MIC, FeCl3 (E. coli ATCC 25922): 8 µM | MIC, NH4Cl (E. coli ATCC 25922): 4 µM | MIC, ZnCl2 (E. coli ATCC 25922): 8 µM | MIC, MgCl2 (E. coli ATCC 25922): 8 µM | MIC, CaCl2 (E. coli ATCC 25922): 8 µM | MIC, KCl (E. coli ATCC 25922): 8 µM | MIC, NaCl (E. coli ATCC 25922): 16 µM | MIC, Control (E. coli ATCC 25922): 4 µM | MBC (S. typhimurium 7731): 16 µM | MIC (S. typhimurium 7731): 8 µM | MBC (S. typhimurium 14028): 8 µM | MIC (S. typhimurium 14028): 4 µM | MBC [2]: 8 µM | MIC [2]: 4 µM | MBC (P. aeruginosa 27853): 8 µM | MIC (P. aeruginosa 27853): 4 µM | MBC (E. coli 25922): 8 µM | MIC (E. coli 25922): 4 µM | MBC (E. coli UB1005): 8 µM | MIC (E. coli UB1005): 4 µM | MBC (E. coli O78): 8 µM | MIC (E. coli O78): 4 µM | MBC (B. subtilis 63501): 2 µM | MIC (B. subtilis 63501): 1 µM | GM, All [3]: 3.67 µM | TI, All [3]: 69.75 | MBC (E. faecalis 29212): 8 µM | MIC (E. faecalis 29212): 4 µM | GM, Gram-positive bacteria (Gram-positive bacteria): 2.69 µM | TI, Gram-positive bacteria (Gram-positive bacteria): 95.17 | GM, Gram-negative bacteria (Gram-negative bacteria): 4.67 µM | TI, Gram-negative bacteria (Gram-negative bacteria): 54.82 | MBC (S. aureus 29213 [4]): 8 µM | MIC (S. aureus 29213 [4]): 4 µM | MBC (S. aureus 25923): 8 µM | MIC (S. aureus 25923): 4 µM | MBC (S. pullorum 7913): 4 µM | MIC (S. pullorum 7913): 2 µM

WRRWRWWRW-NH2 [W12]
MBC (MRSA 43300): 4 µM | MIC (MRSA 43300): 2 µM | MIC, FeCl3 (S. aureus 29213 [1]): 2 µM | MIC, NH4Cl (S. aureus 29213 [1]): 2 µM | MIC, ZnCl2 (S. aureus 29213 [1]): 2 µM | MIC, MgCl2 (S. aureus 29213 [1]): 2 µM | MIC, CaCl2 (S. aureus 29213 [1]): 2 µM | MIC, KCl (S. aureus 29213 [1]): 2 µM | MIC, NaCl (S. aureus 29213 [1]): 4 µM | MIC, Control (S. aureus 29213 [1]): 2 µM | MBC (S. epidermidis 12228): 4 µM | MIC (S. epidermidis 12228): 2 µM | MIC, FeCl3 (E. coli ATCC 25922): 4 µM | MIC, NH4Cl (E. coli ATCC 25922): 4 µM | MIC, ZnCl2 (E. coli ATCC 25922): 2 µM | MIC, MgCl2 (E. coli ATCC 25922): 4 µM | MIC, CaCl2 (E. coli ATCC 25922): 16 µM | MIC, KCl (E. coli ATCC 25922): 4 µM | MIC, NaCl (E. coli ATCC 25922): 32 µM | MIC, Control (E. coli ATCC 25922): 4 µM | MBC (S. typhimurium 7731): 16 µM | MIC (S. typhimurium 7731): 8 µM | MBC (S. typhimurium 14028): 8 µM | MIC (S. typhimurium 14028): 4 µM | MBC [2]: 4 µM | MIC [2]: 2 µM | MBC (P. aeruginosa 27853): 8 µM | MIC (P. aeruginosa 27853): 4 µM | MBC (E. coli 25922): 8 µM | MIC (E. coli 25922): 4 µM | MBC (E. coli UB1005): 8 µM | MIC (E. coli UB1005): 4 µM | MBC (E. coli O78): 8 µM | MIC (E. coli O78): 4 µM | MBC (B. subtilis 63501): 2 µM | MIC (B. subtilis 63501): 1 µM | GM, All [3]: 3.08 µM | TI, All [3]: 41.56 | MBC (E. faecalis 29212): 8 µM | MIC (E. faecalis 29212): 4 µM | GM, Gram-positive bacteria (Gram-positive bacteria): 2.00 µM | TI, Gram-positive bacteria (Gram-positive bacteria): 64.00 | GM, Gram-negative bacteria (Gram-negative bacteria): 4.32 µM | TI, Gram-negative bacteria (Gram-negative bacteria): 29.63 | MBC (S. aureus 29213 [4]): 4 µM | MIC (S. aureus 29213 [4]): 2 µM | MBC (S. aureus 25923): 4 µM | MIC (S. aureus 25923): 2 µM | MBC (S. pullorum 7913): 8 µM | MIC (S. pullorum 7913): 4 µM
